Measurements as given in ChEMBL document CHEMBL1201862, “PubChem BioAssay data set” (2004).
The source made the active and inactive calls.

Experiments:
[1] = microbe, parasite or virus in culture; assay type: functional; details: Mycobacterium tuberculosis
[2] = Luminescence Cell-Based Dose Retest to Confirm Inhibitors of Cancer Stem Cells. [Related pubchem assays (depositor defined):AID2717, AID2721]; assay type: functional; details: Homo sapiens
Cytochrome P450 2C19 = Cytochrome P450 2C19 (Homo sapiens, UniProt P33261); assay: Cytochrome panel assay with activity outcomes. Panel member name: p450-cyp2c19 Compounds with AC50 equal or less than 10 uM are considered active; assay type: functional; details: read-out: AC50
Sequence of Cytochrome P450 2C19 (P33261 whole entry): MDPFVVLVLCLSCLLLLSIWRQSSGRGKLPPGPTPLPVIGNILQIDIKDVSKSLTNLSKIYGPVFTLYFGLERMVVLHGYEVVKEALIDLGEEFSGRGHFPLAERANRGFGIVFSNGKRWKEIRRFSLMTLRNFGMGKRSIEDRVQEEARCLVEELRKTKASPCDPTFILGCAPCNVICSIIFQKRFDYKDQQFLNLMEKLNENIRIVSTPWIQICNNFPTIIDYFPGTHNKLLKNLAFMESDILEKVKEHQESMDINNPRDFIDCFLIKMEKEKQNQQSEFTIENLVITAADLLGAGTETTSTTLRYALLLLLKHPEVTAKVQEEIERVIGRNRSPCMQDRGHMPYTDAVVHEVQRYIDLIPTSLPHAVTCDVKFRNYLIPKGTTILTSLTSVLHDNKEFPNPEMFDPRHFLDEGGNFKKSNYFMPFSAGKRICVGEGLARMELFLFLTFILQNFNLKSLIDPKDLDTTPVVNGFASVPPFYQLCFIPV

Cytochrome P450 1A2 = biological target: T1, Cytochrome P450 1A2 (Homo sapiens, UniProt P05177);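 also: PubChem cytochrome P450 panel assay, CYP1A2 panel member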
T1 sequence (P05177 whole entry): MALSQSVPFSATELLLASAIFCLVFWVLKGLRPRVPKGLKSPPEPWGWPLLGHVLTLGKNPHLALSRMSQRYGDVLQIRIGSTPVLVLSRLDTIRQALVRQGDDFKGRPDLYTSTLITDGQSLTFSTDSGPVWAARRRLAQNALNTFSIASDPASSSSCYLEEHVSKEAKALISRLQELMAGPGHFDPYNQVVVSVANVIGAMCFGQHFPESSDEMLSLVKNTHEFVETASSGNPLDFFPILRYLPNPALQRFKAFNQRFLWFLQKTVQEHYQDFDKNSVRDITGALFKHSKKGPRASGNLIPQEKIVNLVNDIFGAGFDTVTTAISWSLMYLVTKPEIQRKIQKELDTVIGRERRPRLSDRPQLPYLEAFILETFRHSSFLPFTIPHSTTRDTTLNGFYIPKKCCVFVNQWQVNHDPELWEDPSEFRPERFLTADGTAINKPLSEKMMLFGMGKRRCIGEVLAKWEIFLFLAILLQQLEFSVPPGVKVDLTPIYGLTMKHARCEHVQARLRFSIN

Cytochrome P450 2D6 = Cytochrome P450 2D6 (Homo sapiens, UniProt P10635);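 also: CYP2D6 member of a cytochrome P450 panel assay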
Sequence of Cytochrome P450 2D6 (P10635 whole entry): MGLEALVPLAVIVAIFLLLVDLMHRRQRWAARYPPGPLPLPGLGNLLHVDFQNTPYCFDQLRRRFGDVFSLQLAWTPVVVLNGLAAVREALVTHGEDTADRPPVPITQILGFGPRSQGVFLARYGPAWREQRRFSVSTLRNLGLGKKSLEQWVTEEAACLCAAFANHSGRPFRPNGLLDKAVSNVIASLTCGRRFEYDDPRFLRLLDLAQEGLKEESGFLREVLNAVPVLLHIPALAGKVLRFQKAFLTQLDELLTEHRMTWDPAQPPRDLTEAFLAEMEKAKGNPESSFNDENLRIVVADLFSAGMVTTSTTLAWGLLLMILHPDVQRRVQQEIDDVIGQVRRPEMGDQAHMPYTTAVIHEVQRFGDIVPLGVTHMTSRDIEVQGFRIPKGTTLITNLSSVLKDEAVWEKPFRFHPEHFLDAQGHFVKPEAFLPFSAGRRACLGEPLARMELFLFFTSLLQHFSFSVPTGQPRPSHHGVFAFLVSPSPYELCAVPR

Cytochrome P450 2C9 = Cytochrome P450 2C9 (Homo sapiens, UniProt P11712)
Sequence of Cytochrome P450 2C9 (P11712 whole entry): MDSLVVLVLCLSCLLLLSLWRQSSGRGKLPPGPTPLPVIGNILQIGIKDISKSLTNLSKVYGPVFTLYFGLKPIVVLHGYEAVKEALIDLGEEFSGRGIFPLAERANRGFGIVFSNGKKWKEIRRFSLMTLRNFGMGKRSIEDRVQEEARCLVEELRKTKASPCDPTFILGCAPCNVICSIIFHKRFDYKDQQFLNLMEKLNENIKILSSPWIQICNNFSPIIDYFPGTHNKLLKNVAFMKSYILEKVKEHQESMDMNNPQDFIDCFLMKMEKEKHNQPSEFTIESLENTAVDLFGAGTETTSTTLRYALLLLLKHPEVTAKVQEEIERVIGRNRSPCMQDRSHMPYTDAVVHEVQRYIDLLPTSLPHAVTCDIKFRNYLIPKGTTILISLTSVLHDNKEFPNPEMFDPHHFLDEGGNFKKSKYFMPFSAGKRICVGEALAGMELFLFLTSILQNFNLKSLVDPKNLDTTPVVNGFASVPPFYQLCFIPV

[3] = biological target: FAD-linked sulfhydryl oxidase ALR (Homo sapiens, UniProt P55789); assay: ALR-catalysed DTT oxidation blockers – biochemical, H2O2 detection, luminescence, cherry-pick, dose response (AID 493248)
Sequence of FAD-linked sulfhydryl oxidase ALR (P55789 whole entry): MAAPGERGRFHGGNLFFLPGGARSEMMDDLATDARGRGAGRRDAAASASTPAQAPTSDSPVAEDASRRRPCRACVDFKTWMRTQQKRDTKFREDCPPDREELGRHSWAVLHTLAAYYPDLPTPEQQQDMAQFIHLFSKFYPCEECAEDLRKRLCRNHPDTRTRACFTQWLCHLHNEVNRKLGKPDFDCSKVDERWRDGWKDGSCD

[4] = NIH-3T3 fibroblast cytotoxicity, dose response, cytotoxicity control, cell-based, fluorescence, Alamar Blue, secondary assay (AID 2327); assay type: functional;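 also: NIH-3T3 mouse fibroblasts cultured with fluconazole at 8 µg/mL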
[5] = fluconazole-exposed Candida albicans growth modulators – fluorescence, retest, confirmation (AID 2467); assay type: functional, cell-based
[6] = biological target: T2, Zinc finger protein mex-5 (Caenorhabditis elegans, UniProt Q9XUB2); assay: potency of MEX-5 RNA-binding blockers – biochemical, C. elegans, fluorescence polarization, dose response (AID 1960)
T2 sequence (Q9XUB2 whole entry): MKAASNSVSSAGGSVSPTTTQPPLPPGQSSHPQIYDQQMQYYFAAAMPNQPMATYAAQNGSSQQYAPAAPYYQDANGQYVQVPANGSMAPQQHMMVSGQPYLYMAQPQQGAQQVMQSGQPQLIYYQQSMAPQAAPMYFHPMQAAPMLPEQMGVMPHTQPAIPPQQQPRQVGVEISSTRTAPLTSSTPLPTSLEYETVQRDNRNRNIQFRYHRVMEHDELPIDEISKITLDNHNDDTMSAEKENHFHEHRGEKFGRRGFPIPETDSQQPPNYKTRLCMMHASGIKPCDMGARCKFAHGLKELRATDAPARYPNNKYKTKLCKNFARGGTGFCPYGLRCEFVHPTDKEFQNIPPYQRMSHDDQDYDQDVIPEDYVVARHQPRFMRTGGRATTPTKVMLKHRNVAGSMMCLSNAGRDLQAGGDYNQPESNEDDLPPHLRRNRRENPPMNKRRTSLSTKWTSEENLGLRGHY

[7] = biological target: T3, RNA-binding protein pos-1 (Caenorhabditis elegans, UniProt G5EF15); assay: disruptors of C. elegans POS-1 RNA interaction – biochemical, fluorescence polarization, dose response (AID 1964);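 also: purified POS-1 fused to maltose binding protein made in E. coli; potency of compounds blocking POS-1 binding to fluorescent RNA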
T3 sequence (G5EF15 whole entry): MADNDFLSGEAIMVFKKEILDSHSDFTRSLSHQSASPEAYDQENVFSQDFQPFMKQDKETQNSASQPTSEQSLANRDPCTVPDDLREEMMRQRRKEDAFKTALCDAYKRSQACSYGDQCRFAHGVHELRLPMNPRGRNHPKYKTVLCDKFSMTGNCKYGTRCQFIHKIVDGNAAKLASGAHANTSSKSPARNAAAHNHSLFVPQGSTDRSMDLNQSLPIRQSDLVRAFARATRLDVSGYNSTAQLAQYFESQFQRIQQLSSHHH

[8] = biological target: T4, Corticotropin-releasing factor receptor 2/Corticotropin-releasing factor-binding protein (Homo sapiens, UniProt P24387+Q13324); assay: activators of CRF receptor 2 with binding protein – uHTS hits, confirmation (AID 602473); assay type: functional; details: read-out: EC50_Mean
T4 sequence (Q13324 whole entry): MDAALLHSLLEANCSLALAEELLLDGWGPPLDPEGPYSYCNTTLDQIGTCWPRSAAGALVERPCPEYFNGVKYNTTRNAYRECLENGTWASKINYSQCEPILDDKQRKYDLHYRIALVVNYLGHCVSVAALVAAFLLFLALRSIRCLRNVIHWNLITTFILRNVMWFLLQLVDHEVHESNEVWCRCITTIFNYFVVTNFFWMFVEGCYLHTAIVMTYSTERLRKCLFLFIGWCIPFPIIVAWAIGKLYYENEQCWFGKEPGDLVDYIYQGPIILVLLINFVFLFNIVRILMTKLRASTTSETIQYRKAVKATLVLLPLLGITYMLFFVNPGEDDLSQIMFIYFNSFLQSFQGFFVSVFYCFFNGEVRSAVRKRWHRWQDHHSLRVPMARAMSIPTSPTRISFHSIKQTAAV
T4 sequence (P24387 whole entry): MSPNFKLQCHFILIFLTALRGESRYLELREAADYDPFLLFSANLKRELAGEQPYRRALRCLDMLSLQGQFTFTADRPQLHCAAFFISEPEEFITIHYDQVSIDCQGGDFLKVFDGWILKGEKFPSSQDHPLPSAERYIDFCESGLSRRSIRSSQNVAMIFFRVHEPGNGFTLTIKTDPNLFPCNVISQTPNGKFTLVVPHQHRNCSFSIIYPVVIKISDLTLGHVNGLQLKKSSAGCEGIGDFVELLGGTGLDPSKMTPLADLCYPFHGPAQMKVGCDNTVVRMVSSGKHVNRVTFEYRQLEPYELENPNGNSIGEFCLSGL

SMILES: Cc1c(NC(=O)c2ccc([N+](=O)[O-])o2)cccc1-c1nc2ncccc2o1
- CC50 [1]: > 40 µM (active)
- AC50 [2]: 4 µM (active)

SMILES: COc1ccc(-c2nc3cnc(N4CCNCC4)nc3n(Cc3cccc(OC)c3)c2=O)cc1
- AC50 (Cytochrome P450 2C19): 39.8 µM (inconclusive)
- AC50 (Cytochrome P450 1A2): 31.6 µM (inconclusive)
- AC50 (Cytochrome P450 2D6): 39.8 µM (inconclusive)

SMILES: O=C1CS[C@@H](c2ccccc2Cl)c2cc(Cl)ccc2N1
- AC50 (Cytochrome P450 1A2): 39.8 µM (inconclusive)

SMILES: Nc1c(-c2ccccc2)cnn1-c1cccc([N+](=O)[O-])c1
- AC50 (Cytochrome P450 2C9): 28.2 µM (inconclusive)
- AC50 [3]: 0.125 µM (active)

SMILES: CC(=O)c1c(C)nc(-c2cccc([N+](=O)[O-])c2)n1O
- EC50 [4]: 69.2 µM (active)
- EC50 [5]: 4.84 µM (active)

SMILES: O=C(CSc1nc(O)c2c(C(F)(F)F)cc(-c3cccs3)nc2n1)Nc1c(F)c(F)c(F)c(F)c1F
- AC50 [2]: 1.04 µM (active)

SMILES: Cc1noc(C)c1S(=O)(=O)NCCN1CCN(c2ccccc2)CC1
- AC50 [3]: 3.33 µM (active)

SMILES: CNCC[C@H](Oc1ccccc1C)c1ccccc1
- AC50 (Cytochrome P450 1A2): 15.8 µM (inconclusive)

SMILES: COC(=O)c1ccc(-n2c(CCC(=O)O)ccc2-c2ccc(C)cc2)cc1
- EC50 [6]: > 300 µM (not active)
- EC50 [7]: > 300 µM (not active)

SMILES: COc1ccccc1NC(=O)/C(C#N)=C/c1cc([N+](=O)[O-])ccc1N1CCCC1
- EC50 [6]: 4.59 µM (inconclusive)
- EC50 [8]: 7.66 µM (active)
- EC50 [7]: 7.27 µM (inconclusive)

SMILES: CCCn1c(NCc2ccc3c(c2)OCO3)nc2ccccc21
- AC50 [3]: 18.9 µM (active)

SMILES: CCn1cc(C=C2C(=O)N(C)C(=O)N(C)C2=O)c2ccccc21
- EC50 [6]: > 300 µM (inconclusive)
- EC50 [7]: > 300 µM (not active)

SMILES: Nc1nnc(C(=O)c2ccccc2N)s1
- EC50 [6]: 3.86 µM (active)
- EC50 [7]: 14.7 µM (active)

SMILES: Sc1nc(-c2ccccc2)c[nH]1
- AC50 [3]: 0.904 µM (active)

SMILES: CCc1ccccc1N1C(=O)c2cccc3c(N4CCOCC4)c([N+](=O)[O-])cc(c23)C1=O
- AC50 (Cytochrome P450 1A2): 10 µM (inconclusive)

SMILES: CC1=C/C(=C(/c2ccc(O)c(C)c2)c2ccccc2C(=O)O)C=CC1=O
- AC50 (Cytochrome P450 1A2): 3.16 µM (inconclusive)

SMILES: O=C(CSc1nc2ccccc2[nH]1)NCCN1CCCCC1
- AC50 (Cytochrome P450 2C19): 22.4 µM (inconclusive)
- AC50 (Cytochrome P450 1A2): 0.316 µM (inconclusive)
- AC50 (Cytochrome P450 2D6): 1.78 µM (inconclusive)

SMILES: Cc1ccc(S(=O)(=O)N2CCC(=O)N(C(COCc3ccc(C(F)(F)F)cc3)Cc3ccccc3)CC2)cc1 (stereo not drawn)
- EC50 [8]: 4.81 µM (active)

SMILES: Nc1[nH]c(N=NC(=O)c2ccc(F)cc2)c2ccccc12
- AC50 [3]: 0.24 µM (active)

SMILES: Cc1ccc(/C=C2\C(=O)Nc3ccccc32)o1
- CC50 [1]: > 40 µM (active)

SMILES: CNc1nc(NCCOC23CC4CC(CC(C4)C2)C3)nc(OCC(F)(F)F)n1
- AC50 (Cytochrome P450 1A2): 12.6 µM (inconclusive)
- AC50 (Cytochrome P450 2C9): 15.8 µM (inconclusive)

SMILES: CCN(CCNC(=O)C1CC(=O)N(CCc2ccccc2)C1)c1ccccc1 (stereo not drawn)
- AC50 [3]: 0.288 µM (active)

SMILES: Cc1cc(=O)oc(C)c1C(=O)Nc1ccc2ncccc2c1
- EC50 [8]: 24.2 µM (active)

SMILES: C[C@@H]1Cc2c(O)c(O)cc(O)c2C(=O)O1
- EC50 [6]: 13.5 µM (active)
- EC50 [7]: 104 µM (active)

SMILES: O=C(CNS(=O)(=O)c1ccc(Br)s1)NCC1COc2ccccc2O1 (stereo not drawn)
- EC50 [4]: > 150 µM (inactive)
- EC50 [5]: > 38 µM (not active)

SMILES: C[C@@H](C(=O)NCc1ccc(S(C)(=O)=O)cc1)[C@H]1C[C@]1(C)[C@H](NC(=O)OCc1ccccc1)c1ccccc1
- AC50 (Cytochrome P450 1A2): 12.6 µM (inconclusive)

SMILES: CCOc1nn(-c2ccc(Cl)cc2)c(O)c1/C=N/c1ccc(O)cc1
- AC50 (Cytochrome P450 1A2): 3.55 µM (inconclusive)
- AC50 (Cytochrome P450 2C9): 3.55 µM (inconclusive)

SMILES: COc1ccc(C(=O)Nc2ccccc2C(=O)Nc2ccccc2C(=O)O)cc1
- EC50 [4]: > 160 µM (inactive)
- EC50 [5]: 3.49 µM (active)

SMILES: C=CCN1C(=O)NC(=O)/C(=C/c2cc3c4c(c2)CCCN4CCC3)C1=O
- AC50 [3]: 2.31 µM (active)

SMILES: O=[N+]([O-])c1cccc(-c2nnc(S)n2-c2ccc(Br)cc2)c1
- AC50 [3]: 3.63 µM (active)

SMILES: CCn1c(CN2CCCCCC2=O)nnc1SCc1cnc(-c2ccccc2)s1
- EC50 [4]: 68 µM (inconclusive)
- EC50 [5]: 1.47 µM (active)

SMILES: Cc1ccc(S(=O)(=O)Nc2ccccc2F)cc1C(=O)NNC(=O)c1ccccc1O
- EC50 [6]: 1.75 µM (inconclusive)
- EC50 [7]: 149 µM (inconclusive)

SMILES: CC1=NN(c2nc(-c3ccc(Cl)cc3)cs2)C(=O)C1
- AC50 [2]: 5.37 µM (active)

SMILES: C[C@H]([C@@H](N)C(=O)N[C@@H](C(=O)O)[C@@H]1O[C@H](n2ccc(=O)[nH]c2=O)[C@@H](O)[C@H]1O)[C@@H](O)c1ccc(O)cn1
- EC50 [4]: > 150 µM (inactive)
- EC50 [5]: 3.67 µM (active)

SMILES: COc1ccc(/C=C/C(=O)N(c2ccccn2)C2CCCCC2)cc1OC
- EC50 [4]: > 150 µM (inactive)
- EC50 [5]: > 38 µM (not active)

SMILES: COc1cc(OC)cc(C(=O)N2CCCC(Nc3ccc(F)cc3)C2)c1 (stereo not drawn)
- AC50 [3]: 1.97 µM (active)

SMILES: CN(C)c1ccc2c3c(ccc(N(C)C)c13)C(=O)OC2
- AC50 [3]: 8.4 µM (active)

SMILES: COc1c(Cl)cc(Cl)cc1CNCCNCCO
- AC50 (Cytochrome P450 1A2): 28.2 µM (inconclusive)
- AC50 (Cytochrome P450 2C9): 22.4 µM (inconclusive)

SMILES: O=C(CCl)Nc1cccn2ncnc12
- CC50 [1]: 32.6 µM (active)

SMILES: COc1ccc(NC(=O)N2CCC3(CC2)CCN(C(=O)c2cnccn2)CC3)cc1
- AC50 (Cytochrome P450 1A2): 10 µM (inconclusive)
- AC50 (Cytochrome P450 2C9): 31.6 µM (inconclusive)

SMILES: CC(NC(=O)CCl)c1ccc(Cl)c(Cl)c1 (stereo not drawn)
- CC50 [1]: 8.91 µM (active)

SMILES: c1ccc(NNC2=NCCCCC2)cc1
- AC50 [2]: 0.898 µM (active)
- AC50 [3]: 0.596 µM (active)

SMILES: COc1ccccc1C1C(C(C)=O)=C(C)N=c2s/c(=C\c3cc(OC)c(OC)c(OC)c3)c(=O)n21 (stereo not drawn)
- EC50 [6]: > 300 µM (not active)
- EC50 [7]: > 300 µM (not active)
